ChEMBL document CHEMBL3885881, “DrugMatrix”

Organism: Rattus norvegicus
Assay: DrugMatrix - Regimen: Daily Repeat
Format: toxicity, organism-based, Sprague-Dawley
Set-up: regimen Daily Repeat, gender Male, age 6-8 weeks
Conditions: in vivo, ip, 10 mg/kg, route intraperitoneal, dose level High, vehicle 100 % SALINE; for ALANINE AMINOTRANSFERASE / ALBUMIN / ALKALINE PHOSPHATASE / ASPARTATE AMINOTRANSFERASE / BLOOD UREA NITROGEN / CHLORIDE / CHOLESTEROL / CREATINE PHOSPHOKINASE / CREATININE / GLUCOSE / LACTATE DEHYDROGENASE / LIPASE / PHOSPHORUS / SODIUM / TOTAL BILIRUBIN / TOTAL PROTEIN / URIC ACID / POTASSIUM: tissue Plasma
[1] = 120 h, tissue Blood, time 5 day

COBALTOUS CHLORIDE
ABSOLUTE EOSINOPHIL [1]: 74 cells/µL | ABSOLUTE LYMPHOCYTE [1]: 8680 cells/µL | ABSOLUTE MONOCYTE [1]: 210 cells/µL | ABSOLUTE SEGMENTED NEUTROPHIL [1]: 1660 cells/µL | BASOPHIL [1]: 0.44% | EOSINOPHIL [1]: 0.68% | ERYTHROCYTE COUNT [1]: 7.83 x10E6/uL | HEMATOCRIT [1]: 48.96% | HEMOGLOBIN [1]: 15.82 G/DL | LEUKOCYTE COUNT [1]: 10.72 x10E3/uL | LYMPHOCYTE [1]: 81.38% | MEAN CORPUSCULAR HEMOGLOBIN [1]: 20.22 pg | MEAN CORPUSCULAR HEMOGLOBIN CONCENTRATION [1]: 32.34 G/DL | MEAN CORPUSCULAR VOLUME [1]: 62.58 fL | MONOCYTE [1]: 1.94% | NEUTROPHIL [1]: 15.1% | PLATELET COUNT [1]: 1648.2 x10E3/uL | ALANINE AMINOTRANSFERASE (120 h, time 5 day): 27.2 u/L | ALBUMIN (120 h, time 5 day): 3.7 G/DL | ALKALINE PHOSPHATASE (120 h, time 5 day): 212.6 u/L | ASPARTATE AMINOTRANSFERASE (120 h, time 5 day): 86.6 u/L | BLOOD UREA NITROGEN (120 h, time 5 day): 17.2 mg/dL | CHLORIDE (120 h, time 5 day): 110.4 MEQ/L | CHOLESTEROL (120 h, time 5 day): 49.8 mg/dL | CREATINE PHOSPHOKINASE (120 h, time 5 day): 277.6 u/L | CREATININE (120 h, time 5 day): 0.56 mg/dL | GLUCOSE (120 h, time 5 day): 125.8 mg/dL | LACTATE DEHYDROGENASE (120 h, time 5 day): 60.2 u/L | LIPASE (120 h, time 5 day): 31.2 u/L | PHOSPHORUS (120 h, time 5 day): 11.88 mg/dL | SODIUM (120 h, time 5 day): 148.6 MEQ/L | TOTAL BILIRUBIN (120 h, time 5 day): 0.26 mg/dL | TOTAL PROTEIN (120 h, time 5 day): 6.26 G/DL | URIC ACID (120 h, time 5 day): 1.38 mg/dL | ABSOLUTE BASOPHIL ([…], tissue Blood, time 14 day): 72 cells/µL | ABSOLUTE EOSINOPHIL ([…], tissue Blood, time 14 day): 76 cells/µL | ABSOLUTE LYMPHOCYTE ([…], tissue Blood, time 14 day): 8200 cells/µL | ABSOLUTE MONOCYTE ([…], tissue Blood, time 14 day): 260 cells/µL | ABSOLUTE SEGMENTED NEUTROPHIL ([…], tissue Blood, time 14 day): 1320 cells/µL | BASOPHIL ([…], tissue Blood, time 14 day): 0.66% | EOSINOPHIL ([…], tissue Blood, time 14 day): 0.8% | ERYTHROCYTE COUNT ([…], tissue Blood, time 14 day): 8.58 x10E6/uL | HEMATOCRIT ([…], tissue Blood, time 14 day): 54.6% | HEMOGLOBIN ([…], tissue Blood, time 14 day): 17.66 G/DL | LEUKOCYTE COUNT ([…], tissue Blood, time 14 day): 9.97 x10E3/uL | LYMPHOCYTE ([…], tissue Blood, time 14 day): 81.92% | MEAN CORPUSCULAR HEMOGLOBIN ([…], tissue Blood, time 14 day): 20.62 pg | MEAN CORPUSCULAR HEMOGLOBIN CONCENTRATION ([…], tissue Blood, time 14 day): 32.34 G/DL | MONOCYTE ([…], tissue Blood, time 14 day): 2.54% | NEUTROPHIL ([…], tissue Blood, time 14 day): 13.72% | PLATELET COUNT ([…], tissue Blood, time 14 day): 1213.6 x10E3/uL | ABSOLUTE BASOPHIL ([…], tissue Blood, time 28 day): 170 cells/µL | ABSOLUTE EOSINOPHIL ([…], tissue Blood, time 28 day): 160 cells/µL | ABSOLUTE LYMPHOCYTE ([…], tissue Blood, time 28 day): 8960 cells/µL | ABSOLUTE MONOCYTE ([…], tissue Blood, time 28 day): 240 cells/µL | ABSOLUTE SEGMENTED NEUTROPHIL ([…], tissue Blood, time 28 day): 2230 cells/µL | BASOPHIL ([…], tissue Blood, time 28 day): 1.38% | EOSINOPHIL ([…], tissue Blood, time 28 day): 1.23% | ERYTHROCYTE COUNT ([…], tissue Blood, time 28 day): 9.9 x10E6/uL | HEMATOCRIT ([…], tissue Blood, time 28 day): 61.68% | HEMOGLOBIN ([…], tissue Blood, time 28 day): 19.49 G/DL | LEUKOCYTE COUNT ([…], tissue Blood, time 28 day): 11.78 x10E3/uL | LYMPHOCYTE ([…], tissue Blood, time 28 day): 76.07% | MEAN CORPUSCULAR HEMOGLOBIN ([…], tissue Blood, time 28 day): 19.7 pg | MEAN CORPUSCULAR HEMOGLOBIN CONCENTRATION ([…], tissue Blood, time 28 day): 31.56 G/DL | MONOCYTE ([…], tissue Blood, time 28 day): 2.09% | NEUTROPHIL ([…], tissue Blood, time 28 day): 19.02% | PLATELET COUNT ([…], tissue Blood, time 28 day): 1119.7 x10E3/uL | ALANINE AMINOTRANSFERASE ([…], time 14 day): 29 u/L | ALBUMIN ([…], time 14 day): 3.74 G/DL | ALKALINE PHOSPHATASE ([…], time 14 day): 189.6 u/L | ASPARTATE AMINOTRANSFERASE ([…], time 14 day): 91.8 u/L | BLOOD UREA NITROGEN ([…], time 14 day): 14.6 mg/dL | CHLORIDE ([…], time 14 day): 112 MEQ/L | CHOLESTEROL ([…], time 14 day): 48.8 mg/dL | CREATINE PHOSPHOKINASE ([…], time 14 day): 182.6 u/L | CREATININE ([…], time 14 day): 0.52 mg/dL | GLUCOSE ([…], time 14 day): 124.8 mg/dL | LACTATE DEHYDROGENASE ([…], time 14 day): 103.2 u/L | LIPASE ([…], time 14 day): 22 u/L | POTASSIUM ([…], time 14 day): 6.24 MEQ/L | SODIUM ([…], time 14 day): 149.8 MEQ/L | TOTAL BILIRUBIN ([…], time 14 day): 0.26 mg/dL | TOTAL PROTEIN ([…], time 14 day): 6.68 G/DL | URIC ACID ([…], time 14 day): 1.26 mg/dL | ALANINE AMINOTRANSFERASE ([…], time 28 day): 38.1 u/L | ALBUMIN ([…], time 28 day): 3.64 G/DL | ALKALINE PHOSPHATASE ([…], time 28 day): 126.6 u/L | ASPARTATE AMINOTRANSFERASE ([…], time 28 day): 117.5 u/L | BLOOD UREA NITROGEN ([…], time 28 day): 15.5 mg/dL | CHLORIDE ([…], time 28 day): 110.7 MEQ/L | CHOLESTEROL ([…], time 28 day): 27.7 mg/dL | CREATINE PHOSPHOKINASE ([…], time 28 day): 386.4 u/L | CREATININE ([…], time 28 day): 0.7 mg/dL | GLUCOSE ([…], time 28 day): 88.3 mg/dL | LACTATE DEHYDROGENASE ([…], time 28 day): 116.6 u/L | LIPASE ([…], time 28 day): 2.8 u/L | PHOSPHORUS ([…], time 28 day): 10.92 mg/dL | POTASSIUM ([…], time 28 day): 6.81 MEQ/L | SODIUM ([…], time 28 day): 152.5 MEQ/L | TOTAL BILIRUBIN ([…], time 28 day): 0.33 mg/dL | TOTAL PROTEIN ([…], time 28 day): 6.59 G/DL | URIC ACID ([…], time 28 day): 1.31 mg/dL
